# Literature values in paper PMC6784055 (Toxins, 2019).
# System: rat brain sodium channel
# Conditions: relative to PbTx1
compound,measurement,value
C[C@@H]1C[C@@H]2O[C@@H]3[C@@H](C)[C@H](O)[C@@H]4O[C@]5(C[C@H](O)CO5)[C@@H](C)[C@H](C)[C@H]4O[C@H]3C[C@H]2O[C@H]2C[C@H]3O[C@H]4C/C=C\C[C@H]5O[C@H]6C=C[C@H]7O[C@H]8[C@H](O)[C@H]9O[C@@H](/C=C/[C@H](O)CO)C=CC[C@@H]9O[C@@H]8C[C@@H]7O[C@@H]6C=C[C@@H]5O[C@@H]4C[C@@H](O)[C@]3(C)O[C@@H]2C1 [ciguatoxin-1B],binding affinity stronger than that of PbTx1,50 fold
